Test results reported in patent publication US10342799B2, “Compositions and methods for prophylaxis and therapy for Meniere's disease” (priority 2013, dated 2019).

Test system: patients diagnosed with active definite MD (Ménière's vertigo attacks)
Assay: Retrospective and prospective review of active definite Meniere's disease patients treated with lamotrigine (vertigo attacks, DHI, side effects)
Assay type: in vivo, human patients
Procedure: Population. A retrospective and prospective review was performed on patients who were older than 18 years old, diagnosed with active definite MD at the Dent Dizziness, Balance and Tinnitus Center and treated with lamotrigine. Definite MD is defined as two or more episodes of vertigo that last for ≥20 minutes with documented hearing loss on at least one occasion, tinnitus and/or aural fullness, and other causes excluded. Active MD status requires patients to experience at least three vertigo attacks during the three months prior to treatment.
Clinical data. Data collected included demographic information, history of MD, prior medical treatment, clinical diagnosis, clinical presentation, stage of the disease, and frequency of Ménière's vertigo attacks prior to and after treatment. The staging of MD was based on the four-tone average of the pure-tone thresholds at 0.5, 1, 2 and 3 kHz of the worst audiogram during the six months before treatment. The questionnaires used were the Dizziness Handicap Inventory (DHI) and the Center's Dizziness Questionnaire. Current or past history of anxiety/depression, migraine problems, and use of anti-anxiety medication were also analyzed.
Outcome variable. The primary outcome measure was the reduction of Ménière's vertigo attacks at both three months after lamotrigine initiation (primarily the titration period) and three months after treatment at maintenance dosage. Secondary outcome measures included DHI scores and patient reports of clinical improvement. Data were confirmed by review of physicians' notes, vestibular and audiogram testing results, and supporting data. Means and standard deviations (SDs) were calculated for all continuous variables and proportions for all categorical variables. The primary research questions were whether or not lamotrigine led to a reduction of Ménière's vertigo attacks and whether or not lamotrigine led to improvement in quality of life for MD patients.
Statistical analysis. The overall difference in Meniere's vertigo attacks among 3 months pre-treatment, 3 months of titration, and 3 months of maintenance treatment was evaluated by Friedman's test, which is a nonparametric test for treatment differences in a randomized complete block design. The Wilcoxon signed rank sum test, which is the nonparametric version of a paired sample t-test, was used for the pairwise comparisons of Meniere's vertigo attacks from the three different time periods as well as DHI before and after treatment. Fisher's exact test was used to evaluate whether treatment effectiveness was affected by migraine or anxiety comorbidities. For all of these statistical tests, the tests were two-sided, and the level of significance was set to 0.05. Differences were considered significant if the p-value was less than 0.05.
Lamotrigine titration. All 45 patients began a titration of lamotrigine of 25 mg BID for two weeks to 50 mg BID for two weeks. Final maintenance dosages varied between 25 mg BID and 200 mg BID due to individual patient tolerance and response; 29 patients were on either 100 mg BID or 150 mg BID maintenance dosages (64%). There was one patient who was lost to follow-up. There were four patients who discontinued lamotrigine due to side effects: one experienced stomachaches and diarrhea, one complained of hallucinations, and two developed rashes.

[1] = mean (SD), three months prior to treatment: 12.7 (SD 11.6)
[2] = number of patients, value in brackets

Nc1nnc(-c2cccc(Cl)c2Cl)c(N)n1 [Lamotrigine, 6-(2,3-Dichlorophenyl)-1,2,4-triazine-3,5-diamine]
vertigo attack reduction and remission: influence of migraine comorbidity (Fisher's exact test, p=0.414): not affected | vertigo attack reduction and remission: influence of anxiety/depression comorbidity (Fisher's exact test, p=1.000): not affected | patients who reported improvement and had anxiety/depression disorder (among the 38 improved patients): 28 patients | patients who reported improvement and had migraine (among the 38 improved patients): 20 patients | mean post-treatment DHI score (mean (SD), prior treatment DHI 47.6 (SD 19.6)): 28.6 (SD 20.9) | mean number of vertigo attacks after three months of maintenance dosage [1]: 1.9 (SD 4.6) | mean number of vertigo attacks three months after initiation (primarily the titration period) [1]: 4.5 (SD 6.2) | Side effect, MD with migraine (number of patients): 1 | Side effect, MD without migraine (number of patients): 3 | Side effect, Total (number of patients): 4 | Vertigo attack free, MD with migraine (number of patients): 11 | Vertigo attack free, MD without migraine (number of patients): 10 | Vertigo attack free, Total (number of patients): 21 | Vertigo reduced, MD with migraine (number of patients): 9 | Vertigo reduced, MD without migraine (number of patients): 8 | Vertigo reduced, Total (number of patients): 17 | Vertigo unchanged, MD with migraine (number of patients): 1 (1) | Vertigo unchanged, MD without migraine (number of patients): 1 (1) | Vertigo unchanged, Total (number of patients): 2 | Side effect, MD with anxiety [2]: 3 | Side effect, MD without anxiety [2]: 1 | Vertigo attack free, MD with anxiety [2]: 15 | Vertigo attack free, MD without anxiety [2]: 6 | Vertigo reduced, MD with anxiety [2]: 13 | Vertigo reduced, MD without anxiety [2]: 4 | Vertigo unchanged, MD with anxiety [2]: 1 (1) | Vertigo unchanged, MD without anxiety [2]: 1 (1) | patients with complete resolution of Ménière's vertigo attacks during the three month maintenance period (of 38 improved patients): 21 patients | patients who discontinued lamotrigine due to side effects (of 45 patients): four | patients who discontinued with hallucinations (of 45 patients): one | patients who discontinued with rashes (of 45 patients): two | patients who discontinued with stomachaches and diarrhea (of 45 patients): one | proportion of patients who reported an improvement in Ménière's vertigo attacks (out of all 45 study patients): 84% | patients who reported an improvement in Ménière's vertigo attacks with lamotrigine treatment (out of all 45 study patients, maintenance 25-200 mg BID): 38 patients | post-DHI score less than pre-DHI score, on average (p=0.001): 19 points | vertigo attacks during 3 months of maintenance relative to 3 months of titration (p=0.04): significantly fewer | vertigo attacks during the two treatment periods compared to the 3 months prior to treatment (titration and maintenance periods, p<0.001, p<0.001, Wilcoxon signed rank): significantly fewer
